Measurements reported in patent US20230212121A1 (DAEGU-GYEONGBUK MEDICAL INNOVATION FOUNDATION, priority 2020, published 2023).

Key:
Format in all cases: cell-based
[1] = target: T1, dopamine transporter (DAT) (Homo sapiens, UniProt Q01959); assay: Dopamine reuptake inhibition, [3H]-DA, HEK-293 cells transfected with dopamine transporter cDNA; conditions: for Triple reuptake inhibition (Ratio %) DAT: compound 1 μM, 20-30 nM [3H]-DA, relative to control without compound = 100%, lower value = more inhibition; for IC50: concentration at which Ratio % is 50%, 6 concentrations 1 nM to 1 μM, read-out: Triple reuptake inhibition (IC50, μM) DAT
T1 construct: expressed in transfected cells; host or cells: HEK-293
T1 sequence (Q01959 whole entry, species assumed): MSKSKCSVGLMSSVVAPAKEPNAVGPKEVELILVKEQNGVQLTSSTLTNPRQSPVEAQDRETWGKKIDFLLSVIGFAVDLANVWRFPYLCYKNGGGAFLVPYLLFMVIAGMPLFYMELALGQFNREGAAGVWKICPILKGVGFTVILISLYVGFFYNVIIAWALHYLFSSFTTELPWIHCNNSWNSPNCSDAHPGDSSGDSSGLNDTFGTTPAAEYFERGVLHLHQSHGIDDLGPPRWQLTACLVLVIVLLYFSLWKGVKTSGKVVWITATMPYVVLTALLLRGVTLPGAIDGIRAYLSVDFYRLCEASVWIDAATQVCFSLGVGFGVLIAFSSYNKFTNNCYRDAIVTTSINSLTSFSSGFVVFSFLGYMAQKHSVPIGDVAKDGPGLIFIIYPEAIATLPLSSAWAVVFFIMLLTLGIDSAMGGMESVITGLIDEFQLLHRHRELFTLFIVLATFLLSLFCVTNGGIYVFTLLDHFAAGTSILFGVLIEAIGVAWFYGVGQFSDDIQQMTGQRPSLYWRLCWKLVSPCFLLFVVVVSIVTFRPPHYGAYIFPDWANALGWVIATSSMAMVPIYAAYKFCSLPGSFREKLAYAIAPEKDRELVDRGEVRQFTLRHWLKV
Experimental: (§1) In order to evaluate the reuptake inhibitory effect of the compounds of the Examples according to the present invention on serotonin, norepinephrine and dopamine, the experiments below were performed, and the results are shown in Table 17.
(§2) To evaluate the reuptake inhibition effect on dopamine, the dopamine transporter cDNA was transfected using the HEK-293 cell line, and then sub-seeded in a 24 well plate the next day. After removing the medium, each compound of the Examples or Comparative Examples diluted to 1 μM in uptake buffer was added to a concentration of 200 μl/well and cultured at 37° C. for 15 minutes. 100 μl of uptake buffer containing 20-30 nM [3H]-DA was added and cultured at 37° C. for 5 minutes. The reaction solution was quickly removed and washed three times with 1 ml ice-cold uptake buffer. After dissolving the resultant in 1% SDS (0.5 ml), the degree of binding of radioisotope-labeled dopamine to the transporter was measured.
(§3) In addition, when evaluating the reuptake inhibitory effect on dopamine, norepinephrine, and serotonin, the same method was performed without treating each compound of the Examples or Comparative Examples as a control, the degree of binding of radioisotope-labeled dopamine, norepinephrine, and serotonin to the transporter was measured, and by using this as a reference (100%), the triple reuptake inhibitory effect was evaluated as a relative ratio (Ratio %). That is, in the control group, the binding of dopamine, norepinephrine, and serotonin to transporters is not inhibited, but when each compound of the Examples is treated and thus the binding is inhibited, the Ratio % value decreases.
(§4) Meanwhile, the Ratio % values were compared, and in the case of the compounds of Examples 6, 10, 13, 14, 17, 20, 21, 22, 30, 31, 32, 34, 36, 38, 39, 40, 54, 55, 56, 57, 58 and 73 with excellent reuptake inhibitory effects on dopamine, norepinephrine and serotonin, the concentration at which the Ratio % is 50% was calculated using a total of 6 concentrations (1 nM, 5 nM, 10 nM, 50 nM, 100 nM, and 1 μM) and expressed as IC50.

[2] = target: T2, serotonin transporter (SERT) (Homo sapiens, UniProt P31645); assay: Serotonin reuptake inhibition, [3H]-5-HT, HEK-293 cells transfected with 5-HT transporter cDNA; conditions: for Triple reuptake inhibition (Ratio %) SERT: compound 1 μM, [3H]-5-HT, relative to control without compound = 100%, lower value = more inhibition; for IC50: concentration at which Ratio % is 50%, 6 concentrations 1 nM to 1 μM, read-out: Triple reuptake inhibition (IC50, μM) SERT
T2 construct: expressed in transfected cells; host or cells: HEK-293
T2 sequence (P31645 whole entry, species assumed): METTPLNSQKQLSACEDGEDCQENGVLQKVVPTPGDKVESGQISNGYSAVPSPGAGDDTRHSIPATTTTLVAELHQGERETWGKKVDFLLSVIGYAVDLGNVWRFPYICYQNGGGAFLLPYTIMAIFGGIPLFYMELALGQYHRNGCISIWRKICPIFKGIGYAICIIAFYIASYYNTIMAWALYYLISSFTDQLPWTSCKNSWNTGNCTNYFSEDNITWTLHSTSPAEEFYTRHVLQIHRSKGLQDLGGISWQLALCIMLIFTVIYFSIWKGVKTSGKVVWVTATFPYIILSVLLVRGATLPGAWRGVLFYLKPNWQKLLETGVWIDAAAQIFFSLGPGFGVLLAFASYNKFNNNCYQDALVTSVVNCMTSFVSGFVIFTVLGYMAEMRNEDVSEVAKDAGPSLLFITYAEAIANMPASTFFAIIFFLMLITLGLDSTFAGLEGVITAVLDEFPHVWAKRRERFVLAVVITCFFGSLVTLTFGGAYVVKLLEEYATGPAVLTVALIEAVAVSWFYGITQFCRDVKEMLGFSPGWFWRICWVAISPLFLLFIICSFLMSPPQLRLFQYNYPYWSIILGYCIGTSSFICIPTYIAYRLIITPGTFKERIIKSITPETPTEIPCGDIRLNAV
Experimental: as §1, §2
(§5) For norepinephrine (NE) and serotonin (5-HT), the degree of binding of radioisotope-labeled norepinephrine or serotonin to the transporter was measured in the same manner as above, except that cells transfected with NE or 5-HT transporter cDNA were used and [3H]—NE or [3H]-5-HT was used as a substrate.
as §3, §4

[3] = target: T3, norepinephrine transporter (NET) (Homo sapiens, UniProt P23975); assay: Norepinephrine reuptake inhibition, [3H]-NE, HEK-293 cells transfected with NE transporter cDNA; conditions: for Triple reuptake inhibition (Ratio %) NET: compound 1 μM, [3H]-NE, relative to control without compound = 100%, lower value = more inhibition; for IC50: concentration at which Ratio % is 50%, 6 concentrations 1 nM to 1 μM, read-out: Triple reuptake inhibition (IC50, μM) NET
T3 construct: expressed in transfected cells; host or cells: HEK-293
T3 sequence (P23975 whole entry, species assumed): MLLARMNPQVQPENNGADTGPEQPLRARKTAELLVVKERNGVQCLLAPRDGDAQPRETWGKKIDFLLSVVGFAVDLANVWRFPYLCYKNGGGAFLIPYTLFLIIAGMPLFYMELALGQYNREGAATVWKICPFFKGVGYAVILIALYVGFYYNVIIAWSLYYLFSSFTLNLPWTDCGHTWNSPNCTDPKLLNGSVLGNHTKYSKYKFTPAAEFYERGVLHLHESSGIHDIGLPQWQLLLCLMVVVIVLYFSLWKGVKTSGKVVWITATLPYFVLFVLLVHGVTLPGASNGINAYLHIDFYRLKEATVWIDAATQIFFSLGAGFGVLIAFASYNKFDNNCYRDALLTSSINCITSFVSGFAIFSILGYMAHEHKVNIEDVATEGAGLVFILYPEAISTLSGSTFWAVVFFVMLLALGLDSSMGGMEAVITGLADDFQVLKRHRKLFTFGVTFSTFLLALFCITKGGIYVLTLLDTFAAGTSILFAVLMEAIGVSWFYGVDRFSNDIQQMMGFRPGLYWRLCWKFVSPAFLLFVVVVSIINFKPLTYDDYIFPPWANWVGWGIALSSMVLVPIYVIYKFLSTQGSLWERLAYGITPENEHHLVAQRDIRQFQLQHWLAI
Experimental: as §1, §2, §5, §3, §4

| SMILES | Triple reuptake inhibition (Ratio %) DAT [1] [%] | Triple reuptake inhibition (Ratio %) SERT [2] [%] | Triple reuptake inhibition (Ratio %) NET [3] [%] | IC50 [1] [µM] | IC50 [2] [µM] | IC50 [3] [µM] |
| --- | --- | --- | --- | --- | --- | --- |
| CCCCOc1ccc(S(=O)(=O)NCCCN2CCC(c3cccc(Cl)c3Cl)CC2)cc1 [Example 33, 4-butoxy-N-(3-(4-(2,3-dichlorophenyl)piperidin-1-yl)propyl)benzenesulfonamide] | 66.67 | 59.74 | 68.93 |  |  |  |
| O=S(=O)(NCCCN1CCC(Cc2ccccc2)CC1)c1ccc2ccccc2n1 [Example 57, N-(3-(4-benzylpiperidin-1-yl)propyl)quinolin-2-sulfonamide] | 13.09 | 53.66 | 30.54 | 4.48 | 0.345 | 1.35 |
| COc1ccc(-c2ccc(S(=O)(=O)NCCCN3CCC(Cc4ccccc4)CC3)cc2)cc1 [Example 61, N-(3-(4-benzylpiperidin-1-yl)propyl)-4′-methoxy-[1,1′-biphenyl]-4-sulfonamide] | 29.62 | 30.78 | 44.79 |  |  |  |
| CCCCNc1ccc(S(=O)(=O)NCCCN2CCC(Cc3ccccc3)CC2)cc1 [Example 16, N-(3-(4-benzylpiperidin-1-yl)propyl)-4-(butylamino)benzenesulfonamide] | 93.59 | 74.25 | 53.45 |  |  |  |
| O=S(=O)(NCCN1CCC(Cc2ccccc2)CC1)c1ccc(Oc2ccccc2)cc1 [Example 3, N-(2-(4-benzylpiperidin-1-yl)ethyl)-4-phenoxybenzenesulfonamide] | 50.09 | 62.10 | 56.36 |  |  |  |
| O=S(=O)(NCCCN1CCC(Cc2ccccc2)CC1)c1cccc2ccccc12 [Example 55, N-(3-(4-benzylpiperidin-1-yl)propyl)naphthalen-1-sulfonamide] | 35.21 | 46.18 | 31.83 | 1.55 | 1.45 | 1.3 |
| CCCCOc1ccc(S(=O)(=O)NCCCN2CCC(Cc3ccc(F)cc3)CC2)cc1 [Example 32, 4-butoxy-N-(3-(4-(4-fluorobenzyl)piperidin-1-yl)propyl)benzenesulfonamide] | 45.64 | 30.80 | 20.42 | 2.14 | 0.386 | 0.749 |
| O=S(=O)(NCCCN1CCN(CCCc2ccccc2)CC1)c1ccc(-c2ccccc2)cc1 [Example 76, N-(3-(4-(3-phenylpropyl)piperazin-1-yl)propyl)-[1,1′-biphenyl]-4-sulfonamide] | 19.97 | 44.91 | 44.79 |  |  |  |
| CCCCOc1ccc(S(=O)(=O)NCCCN2CCC(Cc3ccc(OC)cc3)CC2)cc1 [Example 30, 4-butoxy-N-(3-(4-(4-methoxybenzyl)piperidin-1-yl)propyl)benzenesulfonamide] |  | 23.18 | 37.58 | 11.6 | 0.538 | 1.7 |
| O=S(=O)(NCCCN1CCC(c2ccccc2)CC1)c1ccc2ccccc2n1 [Example 65, N-(3-(4-phenylpiperidin-1-yl)propyl)quinolin sulfonamide] | 89.88 | 56.73 | 45.04 |  |  |  |
| CCCCOc1ccc(S(=O)(=O)NCCCN2CCN(c3ccc(Cl)c(Cl)c3)CC2)cc1 [Example 23, 4-butoxy-N-(3-(4-(3,4-dichlorophenyl)piperazin-1-yl)propyl)benzenesulfonamide] | 99.56 | 41.32 | 83.63 |  |  |  |
| O=S(=O)(NCCCN1CCC(Cc2ccccc2)CC1)c1ccc(-c2ccc(Cl)cc2)cc1 [Example 59, N-(3-(4-benzylpiperidin-1-yl)propyl)-4′-chloro-[1,1′-biphenyl]-4-sulfonamide] | 15.16 | 29.78 | 44.79 |  |  |  |
| O=S(=O)(NCCCN1CCC(Cc2ccccc2)CC1)c1ccc(-c2ccc(F)cc2)cc1 [Example 58, N-(3-(4-benzylpiperidin-1-yl)propyl)-4′-fluoro-[1,1′-biphenyl]-4-sulfonamide] | 55.51 | 50.76 | 44.79 | 0.647 | 1.84 | 0.429 |
| O=S(=O)(NCCCN1CCN(c2ccc(Cl)cc2)CC1)c1cccc2ccccc12 [Example 71, N-(3-(4-(4-chlorophenyl)piperazin-1-yl)propyl)naphthalen-1-sulfonamide] | 68.53 | 47.19 | 64.45 |  |  |  |
| O=S(=O)(NCCN1CCN(c2ccc(Cl)cc2)CC1)c1ccc2ccccc2n1 [Example 53, N-(2-(4-(4-chlorophenyl)piperazinyl)ethyl)quinolin-2-sulfonamide] | 68.53 | 47.19 | 64.45 |  |  |  |
| O=S(=O)(NCCN1CCC(c2ccccc2)CC1)c1cccc2ccccc12 [Example 43, N-(2-(4-phenylpiperidin-1-yl)ethyl)naphthalen-1-sulfonamide] | 80.21 | 64.15 | 34.97 |  |  |  |
| CCCCOc1ccc(S(=O)(=O)NCCN2CCC(c3c[nH]c4ccc(OC)cc34)CC2)cc1 [Example 8, 4-butoxy-N-(2-(4-(5-methoxy-1H-indol-3-yl)piperidin-1-yl)ethyl)benzenesulfonamide] | 90.67 | 98.57 | 79.30 |  |  |  |
| O=S(=O)(NCCN1CCN(c2ccc(Cl)cc2)CC1)c1ccc2ccccc2c1 [Example 50, N-(2-(4-(4-chlorophenyl)piperazinyl)ethyl)naphthalen-2-sulfonamide] | 86.50 | 45.16 | 87.27 |  |  |  |
| CCCCOc1ccc(S(=O)(=O)NCCCN2CCC(Cc3cccc(Cl)c3)CC2)cc1 [Example 31, 4-butoxy-N-(3-(4-(3-chlorobenzyl)piperidin-1-yl)propyl)benzenesulfonamide] |  | 14.27 | 18.93 | 1.05 | 0.216 | 0.041 |
